Measurements reported in patent publication US10028992B2, “Methods of treating muscular dystrophy” (BOARD OF REGENTS OF THE NEVADA SYSTEM OF HIGHER EDUCATION …, priority 2012, dated 2018).
Where two headings read alike, the source gives them in different places.

Key:
[1] = system: α7 integrin promoter; assay: muscle cell-based assay: α7βgal+/− myoblasts/myotubes, LacZ reporter, β-galactosidase cleavage of FDG; set-up: species or system mouse; conditions: for EC50: read-out: EC50; for Result in α7+/− β-galactosidase assay: Myoblasts
In short: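 Primary α7βgal+/− mouse myoblasts (LacZ knocked into α7 integrin exon 1, promoter retained), differentiated; promoter activity read as β-galactosidase conversion of non-fluorescent FDG to fluorescein. Hits followed by dose-response, western analysis and myostatin counterscreen.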

[2] = system: α7 integrin; assay: western analysis of α7 integrin in DMD myoblasts/myotubes; assay type: cell-based, human; conditions: 2,2-dipyridyl 31.25 μM, deferoxamine 5 and 10 μM, 132 hrs
Method: (§1) FIGS. 13A-13D illustrate western blot studies in which protein extracts from C2C12 (A, B) and DMD (C, D) myoblasts were first treated with PBS or 100 nM LAM-111 and then subjected to western analysis of the α7B integrin and the Cox-1 loading standard. *=p<0.05.
Protein was extracted from the cells and subjected to western blotting using antibodies against α7 integrin. α-tubulin was used as a loading control.
(§2) It is contemplated that the identified parent scaffolds (Tables 8 and 9) increase α7 integrin expression through a similar mechanism.

[3] = system: Mdx/utr−/− mice; assay: treatment of mdx/utr−/− mice; conditions: mouse, in vivo
[4] = system: α7 integrin; assay: western analysis of α7 integrin in C2C12 myoblasts/myotubes; assay type: cell-based, mouse; conditions: C2C12 myotubes
Method: as §1
Bands were quantified using Image J software and then graphed as α7 Integrin protein levels relative to GAPDH protein levels. * denotes a significant difference in relative protein levels with **p<0.01.
The ability of laminin to regulate α7 integrin expression, α7βgal^+/− myoblasts were exposed to 0-200 nM laminin-111 for 24 hours. The activity of the α7 integrin promoter was measured by β-galactosidase cleavage of the non-fluorescent compound fluorescein di-β-D-galactopyranoside (FDG) to fluorescein. […] The ability of laminin-111 to increase α7 integrin expression was confirmed by western analysis using mouse and human DMD muscle cells (FIGS. 2A-2D).
as §2

**Q.** What does the source list for c1ccc(-c2ccccn2)nc1 [2,2-Dipyridyl, 2,2-dipyridyl, reference compound]?
**A.** Optimal Concentration [1]: 125 μm; EC50 [1]: 62.5 µM; α7 integrin protein [2]: increased

**Q.** Which results are given for CC(C)CCC[C@@H](C)[C@H]1CC[C@H]2[C@@H]3CC(=O)[C@H]4C[C@@H](O)CC[C@]4(C)[C@H]3CC[C@]12C [5α-cholestan-3β-ol-6-one, reference compound]?
**A.** EC100 [1]: 20 µM; Optimal Concentration [1]: 20 μm; EC50 [1]: 6 µM; α7 integrin protein [2]: increased

**Q.** Which results are given for CCCC(CCC)C(=O)O [Valproic acid, valproic acid]?
**A.** Akt signaling pathway in muscle [3]: activation; fibrosis [3]: reduced fibrosis; mobility [3]: improved mobility; muscle disease ([3]; listed as Valproic Acid): reduced muscle disease; muscle disease ([3]; listed as valproic acid): reduced overall muscle disease; EC50 ([1]; Mus musculus, enhancement of α7 integrin expression in muscle cells): 500 µM; Optimal Concentration ([1]; enhancement of α7 integrin expression in muscle cells): 2 mM; α7 integrin protein [4]: increased

**Q.** How did the “Result in α7+/− β-galactosidase assay” value ([1]; 0.5 uM) turn out when O=C1Nc2ccccc2/C1=C1/Nc2ccccc2/C1=N\O [drawing 726] was run?
**A.** 0.07252

**Q.** And the “Result in α7+/− β-galactosidase assay” value ([1]; 1 uM)?
**A.** 0.1204

**Q.** What about the “Result in α7+/− β-galactosidase assay” value ([1]; 5 uM) of the same compound?
**A.** −0.1537

**Q.** And the “Result in α7+/− β-galactosidase assay” value ([1]; 10 uM)?
**A.** −0.432

**Q.** What about the “Result in α7+/− β-galactosidase assay” value ([1]; 20 uM) of the same compound?
**A.** −0.6932

**Q.** What about the “Result in α7+/− β-galactosidase assay” value ([1]; 40 uM) of the same compound?
**A.** −0.758
